Measured values taken from US6686360B2, “N-benzylpiperazine compounds” (priority 2001, dated 2004).

Legend:
[1] = test system: mouse model of neurodegeneration affecting both the cortical neurones and the subjacent white matter; experiment: Neuroprotection in the cortex and white matter: excitotoxic lesions by intracerebral ibotenate or S-bromo-willardiine; type: in vivo; conditions: for Cortical lesions: lesion, μm / White matter lesions: lesion, μm: 10 mg/kg i.p. immediately after excitotoxic assault at P5, sacrifice at P10, averages; for size of the lesions in the white matter and in the cortex (neuroprotective effect): newborn Swiss mouse, test compound intraperitoneally after excitotoxic assault
Method: The model used is a mouse model of neurodegeneration affecting both the cortical neurones and the subjacent white matter (S. L. Tahraoui et al., Brain Pathol., 2001, 11, 56-71). This model is based on an intracerebral injection of S-bromo-willardiine, a glutamatergic agonist that acts on AMPA-kainate receptors, or of ibotenate, an agonist of NMDA-type receptors, in the newborn mouse.
All the injections are carried out in the morning between 10.00 and 13.00 hours. The animals are anaesthetised in advance and kept under a heating lamp during the handling period. Each experimental group comprises from 5 to 12 Swiss mice of both sexes, from at least 2 different litters. On the 5th day of life (P5), 10 μg of ibotenate or 15 μg of S-bromo-willardiine are injected intracerebrally using a 25G gauge needle mounted on a 50 μl syringe, fixed to a calibrated device that delivers a bolus of 1 μl at each depression. The needle is inserted 2 mm below the cutaneous level, in the fronto-parietal region of the right hemisphere (2 mm in front of the lambdoid suture and 2 mm outside the median line). Two boluses of 1 μl (1 μl into the periventricular white matter and 1 μl into the cortex) are administered. An interval of 30 seconds, during which the needle remains in position, separates each bolus in order to allow diffusion of the product. Immediately after this excitotoxic assault, the test compound (3, 10 or 30 mg/kg) or the carrier is administered intraperitoneally (injected volume=5 μl). The animals are sacrificed by decapitation 5 days later (P10) and their brains are immediately removed and fixed in formol before being enclosed in paraffin. Series of 15 μm coronal sections are prepared for all the brains and stained with cresyl violet, which makes it possible to determine in a precise and reproducible manner the anterio-posterior axis of the histological lesions in both the cortex and the white matter. The sizes of the histological lesions are determined by two independent observers having no knowledge of the experimental groups. The results are expressed in the form of averages.

[2] = test system: lesions induced by kainic acid in the CA1 and CA3 regions of the hippocampus; experiment: Neuroprotection in the CA1 and CA3 regions of the hippocampus (kainic acid lesions); type: in vivo, rat; conditions: single injection 20 mg/kg intraperitoneal 3 minutes before kainic acid 12 mg/kg i.p.; sacrifice 7 days later
Method: The histopathological changes observed which are associated with administration of kainic acid differ from cerebral ischaemia caused by lesions that develop first in the CA1 to CA3 regions of the hippocampus (C. Montecot et al., Neuroscience 84, 791-800). The aim is to study the protective effect against lesions induced essentially in the CA3 region of the hippocampus while there is no reduction in the circulation of blood.
Kainic acid is administered intraperitoneally to a conscious rat in a dose of 12 mg/kg. The animal is then observed for a period of about 2 hours during which, after a latent period, epileptiform convulsions occur. At the end of 2 hours, the convulsions are stopped by administration of 10 mg/kg of diazepam. The animals are sacrificed 7 days later, their brains are isolated and 8 transverse sections 15 μm thick, spaced 150 μm apart, are prepared. These are analysed by contrast microscopy by two independent observers having no knowledge of the experimental groups. A rating of 0 to 3 is given according to the severity of the neuronal lesions. The ratings for each hemisphere are added together to obtain a lesion rating.
The product is administered in a dose of 20 mg/kg by the intraperitoneal route 3 minutes before administration of the kainic acid.

[3] = test system: primary cultures of cardiomyocytes; experiment: Anti-apoptotic effect in primary cultures of cardiomyocytes (H2O2-induced apoptosis); type: cell-based; conditions: newborn rat cardiomyocytes; H2O2 0.075 mmol/liter for 30 minutes, then 24 hours culture
Method: An in vitro study into an anti-apoptotic effect in primary cultures of cardiomyocytes was carried out by inducing apoptosis by adding hydrogen peroxide (H2O2). The free radicals produced induce apoptosis. This is similar to what is observed in ischaemia-reperfusion (R. Von Harsdorf, Circulation 99, 2934-2941). The cardiomyocytes are isolated from newborn rat hearts and are spread out at a density of 35 000 cells/cm^2. The process of apoptosis is induced by the addition of H2O2 (0.075 mmol/liter) for 30 minutes. The cardiomyocytes are then replaced in the culture medium for 24 hours. The apoptotic cells are visualised by various techniques, for example by the fragmentation of the genomic DNA that occurs in the process of apoptosis. […] The characteristic fragments of 180 bp of genomic DNA are detected by electrophoresis on agarose gel. The migration of phosphatidylserine (PS) from the inside of the membrane of the […] to the outside (externalisation) is an early indicator of apoptosis. This can be visualised by fluorescent labelling using annexin-V-FITC (fluorescein isothiocyanate) and quantified by comparison with the total number of cells.

[4] = test system: transitory focal cerebral ischaemia; experiment: Anti-ischaemic activity: transitory focal cerebral ischaemia by intraluminal occlusion; type: in vivo; conditions: adult male Wistar rat; 1 mg/kg intravenously 3 minutes before occlusion; occlusion 1 hour, reperfusion 23 hours
Method: The model used is a model of transitory focal cerebral ischaemia produced by intraluminal occlusion which mimics an embolic cerebral vascular accident in humans. The location of the infarction is cortical and subcortical (R. Bordet et al., J Cereb Blood Flow Metab. 20, 2000, 1190-1196 and 1999, 19, 1309-1345).
The model consists of a unilateral occlusion of the […] for 1 hour followed by reperfusion for 23 hours in an adult male Wistar rat. The aim of this experiment is to study the anti-ischaemic effect of the compounds of the invention.
The animals are anaesthetised for surgery with 300 mg/kg of chloral hydrate. For the duration of the surgery, their temperature is monitored and maintained at 37° C. using a temperature-controlled heating blanket.
The principal procedure is to stop the circulation of blood to the right middle cerebral artery (MCA) by intraluminal occlusion of the ostium. After 60 minutes, the occlusion is removed and the animals are replaced in their cage. After 24 hours the animals are sacrificed under anaesthetic. […]
The uncorrected infarcted zones and the total hemispheric zones are calculated separately for each section using an image analysis program. The corrected total volume of infarction is calculated in order to compensate for the effect of cerebral cedema. […]

| SMILES | Cortical lesions: lesion, μm [1] [μm] | White matter lesions: lesion, μm [1] [μm] | size of the lesions in the white matter and in the cortex (neuroprotective effect) [1] | protection of neurones of the CA1 and CA3 regions of the hippocampus against kainic acid lesions [2] | cell survival [3] | percentage of cells undergoing apoptosis [3] | size of the infarction of the cortex and striatum [4] |
| --- | --- | --- | --- | --- | --- | --- | --- |
| COc1ccc(CN2CCNCC2)c(OC)c1OC [TMZ, Trimetazidine, reference compound] | 800 | 320 | very low neuroprotective effect | – | – | – | – |
| COc1ccc(CN2CCN(Cc3ccccc3)CC2)c(OCCCCCCC(=O)O)c1OC.Cl.Cl [Example 2, 7-{6-[(4-Benzyl-1-piperazinyl)methyl]-2,3-dimethoxyphenoxy}-heptanoic acid dihydrochloride] | 200 | 146.7 | reduced the size of the lesions in the white matter and in the cortex | protects the neurones of the CA1 and CA3 regions of the hippocampus against lesions induced by kainic acid | increase | decrease | reduced the size of the infarction of the cortex and striatum significantly |
